Reference: patent US9227935B2, “Piperidine/piperazine derivatives” (Janssen Pharmaceutica N.V., priority 2007, dated 2016)

Target: T1, human DGAT1 (Homo sapiens, UniProt O75907)
T1 construct: FLAG (N); made in house; host or cells: SF9 insect cells (baculovirus, pFastBac); total cell membranes used as the enzyme source
T1 sequence (O75907 1-488): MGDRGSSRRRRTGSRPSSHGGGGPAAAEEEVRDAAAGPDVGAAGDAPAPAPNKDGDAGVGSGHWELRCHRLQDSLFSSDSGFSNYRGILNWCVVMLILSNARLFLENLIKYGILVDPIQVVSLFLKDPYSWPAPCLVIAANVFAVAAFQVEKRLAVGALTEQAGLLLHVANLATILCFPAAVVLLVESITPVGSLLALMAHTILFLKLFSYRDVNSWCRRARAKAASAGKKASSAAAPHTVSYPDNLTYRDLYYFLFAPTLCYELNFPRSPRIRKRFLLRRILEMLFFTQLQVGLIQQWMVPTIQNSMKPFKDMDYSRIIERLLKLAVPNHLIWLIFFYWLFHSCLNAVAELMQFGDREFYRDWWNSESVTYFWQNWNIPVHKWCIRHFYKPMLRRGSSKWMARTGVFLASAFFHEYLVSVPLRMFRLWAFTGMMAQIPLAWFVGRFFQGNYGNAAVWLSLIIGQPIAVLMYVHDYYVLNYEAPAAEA
Assay: DGAT1 FlashPlate inhibition assay with DGAT1 membrane preparations
Type: biochemical
Details: IC50 values expressed in M; pIC50 = -logIC50; inhibition of DGAT1 activity
Excerpt: The inhibiting activity of the present compounds on DGAT1 activity was screened in a single well procedure assay using DGAT1 comprising membrane preparations and DGAT1 substrate comprising micelles and determining formed radio-active triacylglycerol coming in close proximity of a flashplate surface by radioluminescence.
Said assay is described in full detail in WO2006/067071, the content of which is incorporated herein by reference.
By DGAT1 activity is meant the transfer of coenzyme A activated fatty acids to the 3-position of 1,2-diacylglycerols, thus forming a triglyceride molecule, by enzyme DGAT1.
human DGAT1 (NM012079.2) was cloned into the pFastBac vector, containing translation start, a FLAG-tag at the N-terminus as described in literature and a viral Kozak sequence (AAX) preceding the ATG to improve expression in insect cells. Expression was done as described in literature (Cases, S., Smith, S. J., Zheng, Y., Myers H. M., Lear, S. R., Sande, E., Novak, S., Collins, C., Welch, C. B., Lusis, A. J., Erickson, S. K. and Farese, R. V. (1998) Proc. Natl. Acad. Sci. USA 95, 13018-13023.) using SF9 cells.
72 h transfected SF9 cells were collected by centrifugation (13000 rpm-15 min-4° C.) and lysed in 2×500 ml lysis buffer (0.1M Sucrose, 50 mM KCl, 40 mM KH2PO4, 30 mM EDTA pH 7.2. Cells were homogenized by cell disruptor. After centrifugation 1380 rpm-15 min-4° C. (SN discarded), pellet was resuspended in 500 ml lysis buffer and total cell membranes collected by ultracentrifugation at 34000 rpm (100 000 g) for 60 min (4° C.). The collected membranes were resuspended in lysis buffer, divided in aliquots and stored with 10% glycerol at −80° C. until use.
Add 1 ml dioleoyl-sn-glycerol (10 mg/ml) to 10 ml of L-α-phosphatidylcholine (1 mg/ml) and 10 ml of L-α-phosphatidyl-L-serine (1 mg/ml) in a thick glass recipient. Evaporate under nitrogen and put on ice for 15 minutes. Reconstitute in 10 ml Tris/HCl (10 mM, pH 7.4) by sonication on ice. The sonification process consists of sonification cycles of 10 seconds in the sonification bath followed by 10 seconds cool down on ice and repeating this sonification cycle till a homogeneous solution is obtained (takes about 15 minutes). The thus obtained micelles are stored at −20° C. till later use and contain DAG at a final concentration of 1.61 mM.
• 50 mM Tris-HCl (pH 7.4), 150 mM MgCl2, 1 mM EDTA, 0.2% BSA. b) N-ethylmaleimide, 5M • Dissolve 5 g into a final volume of 8 ml DMSO 100% and store at −20° C. in aliquots till later use. c) Substrate mix (for 1 384 well plate=3840 μl) • 612 μl micelles stock (51 μM final) • 16.6 μl oleoylCoA 9.7 mM • 23 μl [^3H]-oleoylCoA (49 Ci/mmol, 500 μCi/ml) • 3188.4 μl Tris pH 7.4, 10 mM d) Enzyme mix (for 1 384 well plate=3520 μl) (5 μg/ml) • Add 11.73 μl of DGAT membrane stock (1500 μg/ml stock) to 3508 μl assay buffer. e) Stop mix (for 1 384 well plate=7.68 ml) (250 mM) • Add 384 μl of N-ethylmaleimide (5M) to 3.456 ml DMSO 100%, and further dilute 3.84 ml of said solution with 3.84 ml DMSO 10%. Method
DGAT activity in membrane preparations was assayed in 50 mM Tris-HCl (pH 7.4), 150 mM MgCl2, 1 mM EDTA and 0.2% BSA, containing 50 μM DAG, […] PC/PS and 8.4 μM [^3H]-oleoylCoA (at a specific activity of 30 nCi/well) in a final volume of 50 μl in 384-well format using the red shifted Basic Image FlashPlate™ (Perkin Elmer Cat. No. SMP400).
In detail, 10 μl enzyme mix and 10 μl substrate mix were added to 30 μl of assay buffer, optionally in the presence of 1 μl DMSO (blank and controls) or 1 μl of the compound to be tested. This reaction mixture was incubated for 120 minutes at 37° C. and the enzymatic reaction stopped by adding 20 μl of the stop mix. The plates were sealed and the vesicles allowed to settle overnight at room temperature. Plates were centrifuged for 5 minutes at 1500 rpm and measured in Leadseeker. […]

Compound	IC50 [nM]
O=C(Nc1ccc(N2CCN(C(=O)Nc3ccccc3I)CC2)cc1)c1ccccc1-c1ccc(C(F)(F)F)cc1 [Compound 91]	1510
O=C(Nc1ccc(N2CCN(C(=O)Nc3ccccc3[N+](=O)[O-])CC2)cc1)c1ccccc1-c1ccc(C(F)(F)F)cc1 [Compound 92]	2340
Cc1cccc([N+](=O)[O-])c1NC(=O)N1CCN(c2ccc(NC(=O)c3ccccc3-c3ccc(C(F)(F)F)cc3)cc2)CC1 [Compound 95]	407
O=C(Nc1ccc(N2CCN(C(=O)Nc3c(F)cc(Br)cc3F)CC2)cc1)c1ccccc1-c1ccc(C(F)(F)F)cc1 [Compound 98]	2630
O=C(Nc1ccc(N2CCN(C(=O)Nc3c(Cl)cc(Cl)cc3Cl)CC2)cc1)c1ccccc1-c1ccc(C(F)(F)F)cc1 [Compound 99]	1820
Cc1cc(Br)cc(C)c1NC(=O)N1CCN(c2ccc(NC(=O)c3ccccc3-c3ccc(C(F)(F)F)cc3)cc2)CC1 [Compound 100]	1550
Cc1cc(C)c(NC(=O)N2CCN(c3ccc(NC(=O)c4ccccc4-c4ccc(C(F)(F)F)cc4)cc3)CC2)c(Cl)c1 [Compound 102]	170
Cc1cc(C)c(NC(=O)N2CCN(c3ccc(NC(=O)c4ccccc4-c4ccc(C(F)(F)F)cc4)cc3)CC2)c(Br)c1 [Compound 103]	200
Cc1cc(C)c(NC(=O)N2CCN(c3ccc(NC(=O)c4ccccc4-c4ccc(C(F)(F)F)cc4)cc3)CC2)c(C)c1Br [Compound 104]	2000
O=C(Nc1ccc(N2CCN(C(=O)Nc3ccc4c(c3)OCCO4)CC2)cc1)c1ccccc1-c1ccc(C(F)(F)F)cc1 [Compound 106]	7240
CCc1cccc(C)c1NC(=O)N1CCC(c2ccc(NC(=O)c3ccccc3-c3ccc(C(F)(F)F)cc3)cc2)CC1 [Compound 110]	955
COc1cccc(OC)c1NC(=O)N1CCC(c2ccc(NC(=O)c3ccccc3-c3ccc(C(F)(F)F)cc3)cc2)CC1 [Compound 111]	4570
Cc1cccc(Cl)c1NC(=O)N1CCC(c2ccc(NC(=O)c3ccccc3-c3ccc(C(F)(F)F)cc3)cc2)CC1 [Compound 113]	1070
O=C(Nc1ccc(C2CCN(C(=O)Nc3c(F)cc(F)cc3Br)CC2)cc1)c1ccccc1-c1ccc(C(F)(F)F)cc1 [Compound 114]	1230
Cc1cc(Br)cc(C)c1NC(=O)N1CCC(c2ccc(NC(=O)c3ccccc3-c3ccc(C(F)(F)F)cc3)cc2)CC1 [Compound 115]	1950
Cc1cc(C)c(NC(=O)N2CCC(c3ccc(NC(=O)c4ccccc4-c4ccc(C(F)(F)F)cc4)cc3)CC2)c(Br)c1 [Compound 118]	631
CCCNC(=O)N1CC=C(c2ccc(NC(=O)c3ccccc3-c3ccc(C(F)(F)F)cc3)cc2)CC1 [Compound 119]	4680
O=C(Nc1ccc(C2=CCN(C(=O)NCC3CCCCC3)CC2)cc1)c1ccccc1-c1ccc(C(F)(F)F)cc1 [Compound 120]	4270
O=C(Nc1ccc(C2=CCN(C(=O)NCc3ccccc3)CC2)cc1)c1ccccc1-c1ccc(C(F)(F)F)cc1 [Compound 121]	4900
O=C(Nc1ccc(C2=CCN(C(=O)NCCCc3ccccc3)CC2)cc1)c1ccccc1-c1ccc(C(F)(F)F)cc1 [Compound 122]	1510
COc1ccc(CNC(=O)N2CC=C(c3ccc(NC(=O)c4ccccc4-c4ccc(C(F)(F)F)cc4)cc3)CC2)cc1 [Compound 123]	4170
CN(C)c1ccc(NC(=O)N2CC=C(c3ccc(NC(=O)c4ccccc4-c4ccc(C(F)(F)F)cc4)cc3)CC2)cc1 [Compound 124]	6760
CCOC(=O)c1cccc(C(=O)Nc2ccc(N3CCN(C(=O)Nc4c(Cl)cccc4Cl)CC3)cc2)c1 [Compound 125]	2.82
Cc1cccc(C)c1NC(=O)N1CCC(c2ccc(NC(=O)c3ccccc3-c3ccc(C(F)(F)F)cc3)cc2)CC1 [Compound 128]	661

Continued, values first:

IC50 [nM]	Compound
1700	O=C(Nc1ccc(N2CCN(C(=O)Nc3ccccc3Cl)CC2)cc1)c1ccccc1-c1ccc(C(F)(F)F)cc1 [Compound 89]
2950	O=C(Nc1ccc(N2CCN(C(=O)Nc3ccccc3F)CC2)cc1)c1ccccc1-c1ccc(C(F)(F)F)cc1 [Compound 90]
4790	CSc1ccccc1NC(=O)N1CCN(c2ccc(NC(=O)c3ccccc3-c3ccc(C(F)(F)F)cc3)cc2)CC1 [Compound 93]
148	Cc1cccc(Cl)c1NC(=O)N1CCN(c2ccc(NC(=O)c3ccccc3-c3ccc(C(F)(F)F)cc3)cc2)CC1 [Compound 94]
525	O=C(Nc1ccc(N2CCN(C(=O)Nc3c(F)cc(F)cc3Br)CC2)cc1)c1ccccc1-c1ccc(C(F)(F)F)cc1 [Compound 96]
490	O=C(Nc1ccc(N2CCN(C(=O)Nc3c(Br)cc(Br)cc3Br)CC2)cc1)c1ccccc1-c1ccc(C(F)(F)F)cc1 [Compound 97]
525	Cc1ccc([N+](=O)[O-])c(NC(=O)N2CCN(c3ccc(NC(=O)c4ccccc4-c4ccc(C(F)(F)F)cc4)cc3)CC2)c1C [Compound 101]
3310	O=C(Nc1ccc(N2CCN(C(=O)Nc3ccccc3Oc3ccccc3)CC2)cc1)c1ccccc1-c1ccc(C(F)(F)F)cc1 [Compound 105]
2450	C=CCNC(=O)N1CCC(c2ccc(NC(=O)c3ccccc3-c3ccc(C(F)(F)F)cc3)cc2)CC1 [Compound 107]
4470	CCc1ccccc1NC(=O)N1CCC(c2ccc(NC(=O)c3ccccc3-c3ccc(C(F)(F)F)cc3)cc2)CC1 [Compound 108]
9550	CC(C)c1ccccc1NC(=O)N1CCC(c2ccc(NC(=O)c3ccccc3-c3ccc(C(F)(F)F)cc3)cc2)CC1 [Compound 109]
269	Cc1cc(C)c(NC(=O)N2CCC(c3ccc(NC(=O)c4ccccc4-c4ccc(C(F)(F)F)cc4)cc3)CC2)c(C)c1 [Compound 112]
2190	Cc1ccc([N+](=O)[O-])c(NC(=O)N2CCC(c3ccc(NC(=O)c4ccccc4-c4ccc(C(F)(F)F)cc4)cc3)CC2)c1C [Compound 116]
316	Cc1cc(C)c(NC(=O)N2CCC(c3ccc(NC(=O)c4ccccc4-c4ccc(C(F)(F)F)cc4)cc3)CC2)c(Cl)c1 [Compound 117]
9.55	O=C(Nc1ccc(N2CCN(C(=O)Nc3c(Cl)cccc3Cl)CC2)cc1)c1ccc(-c2ccccn2)cc1 [Compound 126]
25.1	CC(C)OC(=O)c1ccc(-c2cccc(C(=O)Nc3ccc(N4CCN(C(=O)Nc5c(Cl)cccc5Cl)CC4)cc3)c2)cc1 [Compound 127]
